The METLIN SMRT retention time set (Domingo-Almenara et al. 2019)

Experiment: gradient 5% acetonitrile 3 min, to 50% in 2 min, to 85% in 15 min, held 3 min, 100 µL/min
Details: column: Zorbax Extend-C18 2.1 x 50 mm; eluents: water / acetonitrile, 0.1% formic acid
How it was run: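 A Zorbax Extend-C18 column (2.1 × 50 mm, 1.8 μm) run at 100 μL/min with water and acetonitrile, both containing 0.1% formic acid, separated mixtures of ~100 pure standards. The HPLC was coupled to a quadrupole time-of-flight mass spectrometer operated in positive and negative ionization mode, with dead and dwell volumes of 40 μL and 900 μL. Each retention time was taken from a computationally picked adduct peak that was then manually inspected.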

| RP-LC retention time [s] | SMILES |
| --- | --- |
| 1080 | O=C(NCCc1ccccc1)Nc1ccc(-c2nc(-c3ccccc3)co2)cc1 |
| 951 | COc1ccc(C(=O)N2CCc3cc(-c4csc(C)n4)ccc32)cc1F |
| 694 | COCCn1cc(CCNC(=O)Nc2ccccc2C)c2cccnc21 |
| 681 | COCCNC(=O)c1nc(Nc2ccc(F)cc2)c2ccccc2n1 |
| 706 | Cc1c(C(=O)N2CCN(c3ccc(F)cc3)CC2)sc2nc[nH]c(=O)c12 |
| 778 | O=C(c1ccc(-c2ccc([N+](=O)[O-])cc2Cl)o1)N1CCOCC1 |
| 711 | CCN1CCCn2cc(S(=O)(=O)NCc3ccccc3)cc2C1=O |
| 881 | COc1ccc(OC)c(S(=O)(=O)N2CCC(n3cnc4ccc(C)cc4c3=O)CC2)c1 |
| 932 | O=C(C1CCCN(c2ccc(Sc3ccc(Br)cc3)nn2)C1)N1CCSCC1 (centres undefined) |
| 829 | CCOC(=O)c1cccc(NC(=O)Cn2ccc3ccc(-c4nnc(C)o4)cc32)c1 |
| 603 | Cc1ccc(-c2cc(C(=O)N3CCN(C)CC3)[nH]n2)cc1C |
| 889 | Cn1nc(COc2ccccc2)c2c1CCN(C(=O)Nc1ccccc1Cl)C2 |
| 572 | COc1ccc(-c2nc(NCCCN3CCCC(C)C3)c3ccccc3n2)cc1 (centres undefined) |
| 616 | N#Cc1cccc(CN2CCCC2c2nc(-c3ccccc3)n[nH]2)c1 (centres undefined) |
| 827 | COc1cccc(N2CCN(c3ccnc(SCC(=O)Nc4cccc(Cl)c4)n3)CC2)c1 |
| 719 | O=C(NCc1ccccc1Cl)c1coc(NC(=O)c2cccs2)n1 |
| 829 | Cc1cc(C)n2c(Nc3cccc(C(F)(F)F)c3)c(-c3ccc(F)cc3)nc2n1 |
| 825 | COc1ccc(-c2ccc3nc(N4CCC(C(=O)O)CC4)sc3n2)cc1 |
| 843 | CCN(CC)CCCCN1c2ccccc2Oc2ccc(Cl)cc21 |
| 777 | O=C(Nc1cccc2cccnc12)C1COCC(=O)N1Cc1ccccc1 (centres undefined) |
| 735 | COC(=O)c1cccc(NC(=O)C2CCCN(c3nnc4ccc(Cl)cn34)C2)c1 (centres undefined) |
| 881 | COc1ccccc1NC(=O)NC1CCN(c2cc(C)cc(C)c2)C1=O (centres undefined) |

| RP-LC retention time [s] | SMILES |
| --- | --- |
| 1380 | Cc1cc(C)c2c(=O)n(Cc3nc(-c4ccccc4)oc3C)c(=O)n(Cc3ccco3)c2n1 |
| 709 | CCOC(=O)c1cnc2nc(C)ccc2c1Nc1cc(OC)ccc1OC |
| 1220 | O=C(c1cccs1)N1CCc2c([nH]c3ccccc23)C1c1ccc(Cl)cc1 (centres undefined) |
| 841 | CC(=O)Nc1ccc(-c2noc(C3CCN(C(=O)c4ccc(Br)cc4)CC3)n2)cc1 |
| 758 | Cc1cc(C)cc(NC(=O)Cn2cc(C(=O)N3CCCC3)c(=O)c3ccc(C)nc32)c1 |
| 776 | N#CCn1cccc1-c1nc(-c2cccnc2)no1 |
| 667 | CCc1cccc(NC(=O)N2CCC(n3cnnc3C3CC3)C2)c1 (centres undefined) |
| 709 | O=C(NC1CC1)[C@@H]1C[C@H](Oc2ccccc2)CN1C(=O)c1ccoc1 |
| 1230 | Cc1cc(C)cc(-c2nnc(Cc3nc(-c4ccc(Cl)cc4)no3)o2)c1 |
| 708 | CC(=O)c1cccc(NC(=O)c2c(F)cccc2F)c1 |
| 1110 | O=C(Cn1nc2c3cc(-c4ccc(Cl)cc4)nn3ccn2c1=O)NC1CCCC1 |
| 968 | COC(=O)c1ccccc1NC(=O)CC1CCCCN1S(=O)(=O)c1ccccc1 (centres undefined) |
| 920 | CCCC(=O)Nc1nc2ccc(CCC(=O)Nc3cc(Cl)c(OC)cc3OC)cc2s1 |
| 662 | CC(C)N1C(=O)c2cccnc2Sc2cc(NC(=O)c3ccncc3)ccc21 |
| 826 | CCCc1ccc(S(=O)(=O)N2CCC3(CC2)NCCN=C3NCc2ccc(OC)cc2)cc1 |
| 702 | CN(C)c1ccc(C(=O)Nc2cnc(N3CCCC3)nc2)cc1 |
| 1070 | Cc1c(C(=O)N2CCSCC2)cnn1-c1ccc(-c2nc(C(C)(C)C)no2)cn1 |
| 758 | Cn1nccc1C(=O)N1CCCC1c1cccc(F)c1 (centres undefined) |
| 691 | CCn1c(=O)c(-c2noc(C(=O)N3CCN(c4ccccn4)CC3)n2)nn(-c2ccccc2)c1=O |
| 822 | CC(C)(C)NC(=O)NCCC1CCN(S(=O)(=O)c2ccccc2)CC1 |
| 611 | Cc1ccc(-c2cn3c(n2)N(C(=O)c2nc4ncccn4n2)CCC3)cc1 |
| 692 | CC(C)c1nnc2n1CCN(C(=O)COc1ccc(Cl)cc1)C2 |

| RP-LC retention time [s] | SMILES |
| --- | --- |
| 992 | COc1ccc(NC(=O)c2c(-c3c(F)cccc3Cl)noc2C)cc1[N+](=O)[O-] |
| 792 | O=C(Nc1cccc(-c2ccc3nnc(-c4cccs4)n3n2)c1)C1CCCC1 |
| 877 | COc1ccc(NC(=O)CSc2cc(N3CCN(c4ccccc4OC)CC3)ncn2)cc1 |
| 678 | COc1ccccc1CCC(=O)N1C[C@@H]2C[C@H](NS(C)(=O)=O)[C@H]1C2 |
| 735 | Cc1[nH]c(C(=O)N2CCC(CC(=O)N3CCCC3)CC2)c(C)c1C(=O)OC(C)C |
| 818 | CCn1cc(CNC(=O)c2cc(-c3ccc4c(c3)OCO4)nc3ccccc23)c(C)n1 |
| 846 | Cc1ccccc1CNC(=O)C1(C)CCCN(C(=O)Nc2ccc3c(c2)OCCO3)C1 (centres undefined) |
| 916 | COC(=O)c1ccc2c(c1)nnn2Cc1ccc(F)cc1 |
| 633 | COCCNC(=O)Cc1c(C)n(C)c2nc(-c3ccccc3)nn2c1=O |
| 781 | Cc1cccc(NC(=O)N2CCC(c3nc(C(=O)N4CCCC4)c(C)o3)CC2)c1C |
| 802 | CCOc1cc(=O)n2c(c1C(=O)Nc1cccc(Br)c1)CCCC2 |
| 824 | CCn1cc(CCNC(=O)Nc2ccc(Cl)cc2F)c2cccnc21 |
| 627 | O=C(COc1ccc(Cl)cc1)Nc1ccc(-c2cn3c(n2)SCC3)cc1 |
| 593 | CCC1CCCCN1CCNC(=O)CCc1cc2cc(OC)ccc2[nH]c1=O (centres undefined) |
| 733 | O=C(NC(c1ccccc1)c1nnc(N2CCOCC2)o1)c1ccccc1F (centres undefined) |
| 619 | O=C(CCc1ccccc1)NC1CCS(=O)(=O)C1 (centres undefined) |
| 866 | Cc1c(F)cccc1NC(=O)Nc1ccc(Nc2cc(-n3cccn3)ncn2)cc1 |
| 895 | CCN1c2cc(Cl)ccc2C(=O)NC12CCN(C(=O)Nc1ccc(OC)cc1)CC2 |
| 716 | CC(=O)N1CCC(C(=O)Nc2cccc(OCc3nnc(-c4ccccc4)o3)c2)CC1 |
| 700 | Cc1nn(C(C)C(=O)NCCCN2CCCCC2)c(=O)c2c(-n3cccc3)n(-c3ccccc3)nc12 (centres undefined) |
| 794 | CCC(=O)c1cn(CC(=O)NCc2ccc3c(c2)OCCCO3)c2ccccc12 |
| 763 | O=S(=O)(NCC1Cn2cccc2CN1Cc1ccccc1)c1ccccc1 (centres undefined) |

| RP-LC retention time [s] | SMILES |
| --- | --- |
| 866 | Cc1ccc(NC(=O)NCCCn2c(C(F)(F)F)nc3cccnc32)cc1F |
| 947 | Cc1nc(-c2ccccc2)sc1CC(=O)NCCC1=CCCCC1 |
| 1250 | COc1ccc(-n2c(=O)c(C(=O)Nc3cccc(F)c3)c(O)c3cccnc32)cc1 |
| 701 | Cc1nc(N2CCN(c3ccccn3)CC2)c2c(C)c(C(=O)Nc3ccc(F)cc3F)sc2n1 |
| 879 | CCC(C)NC(=O)Cn1c(=O)c(S(=O)(=O)c2ccccc2)cc2cc(C)ccc21 (centres undefined) |
| 640 | COc1ccc(NS(=O)(=O)c2cc3n(c2)CCCNC3=O)c(C)c1 |
| 612 | COc1ccc(CNC(=O)Cn2c(N3CCCC3)nc(C)cc2=O)cc1 |
| 995 | O=C(NCc1csc(-c2ccccc2)n1)C1CCN(S(=O)(=O)c2ccc(Cl)s2)CC1 |
| 559 | Cc1noc(C)c1CC(=O)N1CCN(c2ncnc3c2CCC3)CC1 |
| 732 | COc1ccc(N2CCOCC2)c2sc(NC(=O)N3CCC(C)(O)CC3)nc12 |
| 772 | Cc1ccc(CNC(=O)C2CCCN(c3cnc4nccnc4c3)C2)o1 (centres undefined) |
| 912 | O=C(c1ccc(-c2csc(C3CC3)n2)cc1)N1CCN(c2ncccn2)CC1 |
| 644 | CCn1c(CNC(=O)C2CCC2)nc2c1CN(S(=O)(=O)c1ccc(F)cc1)CC2 |
| 700 | O=C(C1CCN(c2cncnc2N2CCOCC2)CC1)N1CCC(Cc2ccccc2)CC1 |
| 1040 | CCc1sc(NC(=O)CS(=O)(=O)c2ccc(C)cc2)nc1-c1ccccc1 |
| 724 | Cc1noc(CNC(=O)COc2cccc3c2OC(C)(C)C3)n1 |
| 657 | CCCNC(=O)C12CCC(C)(C(=O)C1)C2(C)C (centres undefined) |
| 792 | CCN1CCCn2cc(S(=O)(=O)NCc3ccccc3C(F)(F)F)cc2C1=O |
| 877 | O=C(Nc1ccc(Cl)cc1)C1CCCN(c2ncnc3c2nc2n3CCCCC2)C1 (centres undefined) |
| 893 | Cc1ccc(C(=O)Nc2ccc(N3CCN(c4ccccc4)C3=O)nc2)s1 |
| 756 | COc1ccc(-n2nc(SCC(=O)Nc3cc(F)ccc3F)ccc2=O)cc1 |

| SMILES | RP-LC retention time [s] |
| --- | --- |
| O=C(NCCc1c[nH]c2ccccc12)c1cc2cccnc2n(Cc2ccccc2)c1=O | 1070 |
| COc1ccc2c(c1)C1(CCN(S(=O)(=O)c3cc(F)cc(F)c3)C1)C(=O)N2C (centres undefined) | 940 |
